Results as given in US20250147039A1, “Compounds for complexation of rare earth elements and/or s-, p-, d- block metals, their coordination compounds, peptide conjugates, method of their preparation and use thereof” (USTAV ORGANICKE CHEMIE A BIOCHEMIE AV CR V.V.I., priority 2021, published 2025).

Columns and labels:
[1] = Formation of 1,5-cz-[M(Lig)] from Lig and M^III ions (metal dependent click-zip) (Charts 4, 5); format: physicochemical; conditions: for conversion to 1,5-cz-[M(Lig)], Y^III / conversion to 1,5-cz-[M(Lig)], Sc^III: MOPS/NaOH buffer pH 7.0, TD728, TD827 in 50% i-PrOH; for conversion to 1,5-cz-[M(Lig)], Y^III: TD714 sum of two diastereoisomers; for conversion to 1,5-cz-[M(Lig)], Bi^III: 4% DMSO in MOPS/NaOH buffer pH 7.0, TD728 in 50% i-PrOH
[2] = Formation of 1,5-cz-[M(Lig)] from Lig and M^II ions (metal dependent click-zip) (Charts 6, 7); format: physicochemical; conditions: MOPS/NaOH buffer pH 7.0; for conversion to 1,5-cz-[M(Lig)], Ca^II / conversion to 1,5-cz-[M(Lig)], Cd^II / conversion to 1,5-cz-[M(Lig)], Mn^II / conversion to 1,5-cz-[M(Lig)], Pb^II / conversion to 1,5-cz-[M(Lig)], Pd^II: TD728 in 50% i-PrOH
[3] = Alkali metal dependent formation of 1,5-cz-Lig and 1,4-cz-Lig isomers from Lig at pH 10.2 (Chart 14); format: physicochemical; conditions: B: 1 day at 80° C., Borate/(M^I)2CO3 buffer pH 10.2
[4] = Formation of 1,5-cz-[Ln(Lig)] from Lig and Ln^III ions (metal dependent click-zip), MOPS/NaOH buffer pH 7.0, analytical HPLC (Charts 1, 2); conditions: MOPS/NaOH buffer pH 7.0
[5] = 1 hour at 80° C., TD714 sum of two diastereoisomers
[6] = visible analyte free precipitate

## C#Cc1cccc(CN2CCN(CC(=O)O)CCN(Cc3cccc(CN=[N+]=[N-])n3)CCN(CP(=O)(O)O)CC2)n1 [TD714]
[1]; 1 week at 80° C.
  conversion to 1,5-cz-[M(Lig)], Y^III: 89%
[1]; 1 hour at 80° C.
  conversion to 1,5-cz-[M(Lig)], Y^III: 22%
[2]; 1 week at 80° C.
  conversion to 1,5-cz-[M(Lig)], Ba^II: 0%
  conversion to 1,5-cz-[M(Lig)], Sr^II: 0%
  conversion to 1,5-cz-[M(Lig)], Ca^II: 6%
  conversion to 1,5-cz-[M(Lig)], Cd^II: 92%
[2]; 1 hour at 80° C.
  conversion to 1,5-cz-[M(Lig)], Ba^II: 0%
  conversion to 1,5-cz-[M(Lig)], Sr^II: 0%
  conversion to 1,5-cz-[M(Lig)], Ca^II: 0%
[2]; [5]
  conversion to 1,5-cz-[M(Lig)], Cd^II: 89%
[3]
  conversion to 1,4-cz-Lig isomer, Cs^I: 44%
  conversion to 1,4-cz-Lig isomer, K^I: 46%
  conversion to 1,4-cz-Lig isomer, Na^I: 7%
  conversion to 1,4-cz-Lig isomer, Rb^I: 45%
  conversion to 1,5-cz-Lig isomer, Cs^I: 9%
  conversion to 1,5-cz-Lig isomer, K^I: 10%
  conversion to 1,5-cz-Lig isomer, Na^I: 81%
  conversion to 1,5-cz-Lig isomer, Rb^I: 9%
[3]; [6]
  conversion to 1,4-cz-Lig isomer, Li^I: 12%
  conversion to 1,5-cz-Lig isomer, Li^I: 15%
[4]; after 1 week at 80° C.
  conversion to 1,5-cz-[Ln(Lig)], Ce^III: 40%
  conversion to 1,5-cz-[Ln(Lig)], Dy^III: 91%
  conversion to 1,5-cz-[Ln(Lig)], Er^III: 93%
  conversion to 1,5-cz-[Ln(Lig)], Eu^III: 85%
  conversion to 1,5-cz-[Ln(Lig)], Gd^III: 85%
  conversion to 1,5-cz-[Ln(Lig)], Ho^III: 93%
  conversion to 1,5-cz-[Ln(Lig)], La^III: 4%
  conversion to 1,5-cz-[Ln(Lig)], Lu^III: 93%
  conversion to 1,5-cz-[Ln(Lig)], Nd^III: 73%
  conversion to 1,5-cz-[Ln(Lig)], Pr^III: 80%
  conversion to 1,5-cz-[Ln(Lig)], Sm^III: 82%
  conversion to 1,5-cz-[Ln(Lig)], Tb^III: 92%
  conversion to 1,5-cz-[Ln(Lig)], Tm^III: 94%
  conversion to 1,5-cz-[Ln(Lig)], Yb^III: 93%
[4]; after 1 hour at 80° C.
  conversion to 1,5-cz-[Ln(Lig)], Ce^III: 1%
  conversion to 1,5-cz-[Ln(Lig)], Dy^III: 23%
  conversion to 1,5-cz-[Ln(Lig)], Er^III: 34%
  conversion to 1,5-cz-[Ln(Lig)], Eu^III: 7%
  conversion to 1,5-cz-[Ln(Lig)], Gd^III: 9%
  conversion to 1,5-cz-[Ln(Lig)], Ho^III: 26%
  conversion to 1,5-cz-[Ln(Lig)], La^III: 0%
  conversion to 1,5-cz-[Ln(Lig)], Lu^III: 37%
  conversion to 1,5-cz-[Ln(Lig)], Nd^III: 3%
  conversion to 1,5-cz-[Ln(Lig)], Pr^III: 2%
  conversion to 1,5-cz-[Ln(Lig)], Sm^III: 5%
  conversion to 1,5-cz-[Ln(Lig)], Tb^III: 17%
  conversion to 1,5-cz-[Ln(Lig)], Tm^III: 40%
  conversion to 1,5-cz-[Ln(Lig)], Yb^III: 40%

## C#Cc1cccc(CN2CCN(CC(=O)O)CCN(Cc3cc(Cl)cc(CN=[N+]=[N-])n3)CCN(CC(=O)O)CC2)n1 [TD764]
[1]; 1 week at 80° C.
  conversion to 1,5-cz-[M(Lig)], Bi^III: 85%
  conversion to 1,5-cz-[M(Lig)], Sc^III: 5%
  conversion to 1,5-cz-[M(Lig)], Y^III: 95%
[1]; 1 hour at 80° C.
  conversion to 1,5-cz-[M(Lig)], Bi^III: 31%
[2]; 1 week at 80° C.
  conversion to 1,5-cz-[M(Lig)], Ca^II: 95%
  conversion to 1,5-cz-[M(Lig)], Cd^II: 96%
  conversion to 1,5-cz-[M(Lig)], Mn^II: 35%
  conversion to 1,5-cz-[M(Lig)], Pb^II: 37%
  conversion to 1,5-cz-[M(Lig)], Pd^II: 9%
[2]; 1 hour at 80° C.
  conversion to 1,5-cz-[M(Lig)], Ca^II: 16%
  conversion to 1,5-cz-[M(Lig)], Mn^II: 1%
  conversion to 1,5-cz-[M(Lig)], Pb^II: 1%
  conversion to 1,5-cz-[M(Lig)], Pd^II: 10%
[2]; [5]
  conversion to 1,5-cz-[M(Lig)], Cd^II: 53%
[4]; after 1 week at 80° C.
  conversion to 1,5-cz-[Ln(Lig)], Ce^III: 20%
  conversion to 1,5-cz-[Ln(Lig)], Dy^III: 93%
  conversion to 1,5-cz-[Ln(Lig)], Er^III: 95%
  conversion to 1,5-cz-[Ln(Lig)], Eu^III: 79%
  conversion to 1,5-cz-[Ln(Lig)], Gd^III: 86%
  conversion to 1,5-cz-[Ln(Lig)], Ho^III: 94%
  conversion to 1,5-cz-[Ln(Lig)], La^III: 25%
  conversion to 1,5-cz-[Ln(Lig)], Lu^III: 96%
  conversion to 1,5-cz-[Ln(Lig)], Nd^III: 50%
  conversion to 1,5-cz-[Ln(Lig)], Pr^III: 35%
  conversion to 1,5-cz-[Ln(Lig)], Sm^III: 73%
  conversion to 1,5-cz-[Ln(Lig)], Tb^III: 91%
  conversion to 1,5-cz-[Ln(Lig)], Tm^III: 96%
  conversion to 1,5-cz-[Ln(Lig)], Yb^III: 96%

## CC(C)(C)C#Cc1cccc(CN2CCN(CC(=O)O)CCN(Cc3cccc(CN=[N+]=[N-])n3)CCN(CC(=O)O)CC2)n1 [TD959]
[1]; 1 week at 80° C.
  conversion to 1,5-cz-[M(Lig)], Sc^III: 1%
  conversion to 1,5-cz-[M(Lig)], Y^III: 82%
[1]; 1 hour at 80° C.
  conversion to 1,5-cz-[M(Lig)], Sc^III: 0%
  conversion to 1,5-cz-[M(Lig)], Y^III: 1%
[2]; 1 week at 80° C.
  conversion to 1,5-cz-[M(Lig)], Ca^II: 83%
  conversion to 1,5-cz-[M(Lig)], Cd^II: 96%
[2]; 1 hour at 80° C.
  conversion to 1,5-cz-[M(Lig)], Ca^II: 1%
[2]; [5]
  conversion to 1,5-cz-[M(Lig)], Cd^II: 2%
[4]; after 1 week at 80° C.
  conversion to 1,5-cz-[Ln(Lig)], Ce^III: 11%
  conversion to 1,5-cz-[Ln(Lig)], Dy^III: 76%
  conversion to 1,5-cz-[Ln(Lig)], Er^III: 93%
  conversion to 1,5-cz-[Ln(Lig)], Eu^III: 51%
  conversion to 1,5-cz-[Ln(Lig)], Gd^III: 54%
  conversion to 1,5-cz-[Ln(Lig)], Ho^III: 84%
  conversion to 1,5-cz-[Ln(Lig)], La^III: 18%
  conversion to 1,5-cz-[Ln(Lig)], Lu^III: 99%
  conversion to 1,5-cz-[Ln(Lig)], Nd^III: 34%
  conversion to 1,5-cz-[Ln(Lig)], Pr^III: 27%
  conversion to 1,5-cz-[Ln(Lig)], Sm^III: 48%
  conversion to 1,5-cz-[Ln(Lig)], Tb^III: 68%
  conversion to 1,5-cz-[Ln(Lig)], Tm^III: 97%
  conversion to 1,5-cz-[Ln(Lig)], Yb^III: 98%
[4]; after 1 hour at 80° C.
  conversion to 1,5-cz-[Ln(Lig)], Ce^III: 0%
  conversion to 1,5-cz-[Ln(Lig)], Dy^III: 1%
  conversion to 1,5-cz-[Ln(Lig)], Er^III: 3%
  conversion to 1,5-cz-[Ln(Lig)], Eu^III: 1%
  conversion to 1,5-cz-[Ln(Lig)], Gd^III: 1%
  conversion to 1,5-cz-[Ln(Lig)], Ho^III: 2%
  conversion to 1,5-cz-[Ln(Lig)], La^III: 0%
  conversion to 1,5-cz-[Ln(Lig)], Lu^III: 6%
  conversion to 1,5-cz-[Ln(Lig)], Nd^III: 0%
  conversion to 1,5-cz-[Ln(Lig)], Pr^III: 0%
  conversion to 1,5-cz-[Ln(Lig)], Sm^III: 1%
  conversion to 1,5-cz-[Ln(Lig)], Tb^III: 1%
  conversion to 1,5-cz-[Ln(Lig)], Tm^III: 4%
  conversion to 1,5-cz-[Ln(Lig)], Yb^III: 5%
